Assay [1] concerns the target T1, RDL receptors (Drosophila melanogaster, UniProt P25123).
T1 sequence (P25123 45-606): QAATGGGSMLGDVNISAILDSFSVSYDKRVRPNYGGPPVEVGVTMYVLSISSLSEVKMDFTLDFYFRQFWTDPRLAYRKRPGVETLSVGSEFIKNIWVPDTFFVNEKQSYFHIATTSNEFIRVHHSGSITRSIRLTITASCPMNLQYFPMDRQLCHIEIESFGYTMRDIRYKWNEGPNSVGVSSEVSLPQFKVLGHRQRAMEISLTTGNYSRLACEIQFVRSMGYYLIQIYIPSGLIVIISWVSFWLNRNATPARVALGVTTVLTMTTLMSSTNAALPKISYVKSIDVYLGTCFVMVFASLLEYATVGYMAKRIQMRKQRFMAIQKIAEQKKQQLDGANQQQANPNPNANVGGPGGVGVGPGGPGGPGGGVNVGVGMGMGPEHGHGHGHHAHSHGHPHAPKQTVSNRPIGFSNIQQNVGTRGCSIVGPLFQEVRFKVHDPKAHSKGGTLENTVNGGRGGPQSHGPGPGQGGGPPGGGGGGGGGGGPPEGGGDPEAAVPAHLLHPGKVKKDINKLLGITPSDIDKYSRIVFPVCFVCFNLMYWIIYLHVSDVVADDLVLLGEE
Briefly: Two-electrode voltage clamp of RDL receptors expressed in Xenopus oocytes. The format is cell-based. Particulars: for EC50: EC50, RDL receptors in Xenopus oocytes; for nH (Hill coefficient) / Imax/Imax(GABA) / pEC50: means ± SEM; for Imax/Imax(GABA): maximal current relative to maximal GABA-evoked response; for pEC50: -60 mV, N/R = no response.

The target in assay [2] is T1, RDL receptors. To be noted: background statement; cited from earlier work.
Where [3] appears, read: RDL receptors in Xenopus oocytes.
Setting [4] is: applied at concentrations up to 10 mM.

“And” between values parts separate entries of the source, which are not always exact repeats. Equal values may be shown once. “Also recorded” adds a separate entry of the source. Where only a bound is given, the exact number is not on record here.

Broadly, the EC50 is the midpoint of the concentration-response curve.

On RDL receptors [1] (Table 1), `NCc1cc(=O)[nH]o1` [muscimol] showed a half-maximal effective concentration (EC50) of 9.04 µM. Further, on RDL receptors [1] (setting [3]), the “agonist type at RDL receptors” value is “full agonist” and the “nH (Hill coefficient)” value turned out to be 2.2 ± 0.6. At RDL receptors [1], the “Imax/Imax(GABA)” value worked out at 0.87 ± 0.03.

On to `NCCCCO` [4-AB, 4-amino-1-butanol], for which, at RDL receptors [1] (setting [3]), the “activation of RDL receptors (in words)” value was “inactive” and the pEC50 result is listed as “N/R”. The “activation of RDL receptors (in words)” value at RDL receptors [1] (setting [4]) was “failed to activate”.

Regarding `NCCCCC(=O)O` [5-AV, 5-aminovaleric acid], the EC50 was 1100 µM and ~1000 µM at RDL receptors [1]; 1120 µM at RDL receptors [1] (Table 1). The “nH (Hill coefficient)” value on RDL receptors [1] (setting [3]) came out at 1.0 ± 0.3. For the same compound, the “Imax/Imax(GABA)” value at RDL receptors [1] is on record as 0.85 ± 0.1.

Turning to `NCCCC(=O)O` [GABA, γ-aminobutyric acid], the “nH (Hill coefficient)” value at RDL receptors [1] (setting [3]) came to 1.8 ± 0.2.

As for `NCCC(=O)O` [β-alanine], on RDL receptors [1], the EC50 is 800 µM and ~1000 µM; the “Imax/Imax(GABA)” value is reported as 1.0 ± 0.03. Also, the response on RDL receptors [1] (Table 1) was half-maximal at 807 µM (EC50). In addition, the “nH (Hill coefficient)” value on RDL receptors [1] (setting [3]) is recorded as 2.0 ± 0.3.

As for `CN1CCc2cc3c(cc2[C@H]1[C@@H]1OC(=O)c2c1ccc1c2OCO1)OCO3` [bicuculline], on RDL receptors [2], the “inhibition of homomeric RDL receptors (in words)” value was “not inhibited”.

On RDL receptors [1] (Table 1), `O=C(O)C1=CCNCC1` [isoguvacine] had an EC50 of 64.9 µM. Also, the “nH (Hill coefficient)” value on RDL receptors [1] (setting [3]) was 1.9 ± 0.2. Also, the “Imax/Imax(GABA)” value at RDL receptors [1] is 0.97 ± 0.03.

Consider `NCCc1ccc(O)cc1` [tyramine], for which, on RDL receptors [1] (setting [3]), the “activation of RDL receptors (in words)” value was “inactive” and the pEC50 result was “N/R”. The “activation of RDL receptors (in words)” value at RDL receptors [1] (setting [4]) is recorded as “failed to activate”.

In the case of `NCCCP(=O)(O)O` [3-APP, 3-aminopropylphosphonic acid], on RDL receptors [1] (setting [3]), the “activation of RDL receptors (in words)” value is “no activating effect; also recorded: inactive” and the pEC50 result was “N/R”.

For the compound picrotoxin, the “inhibition of homomeric RDL receptors (in words)” value at RDL receptors [2] is reported as “inhibited”.

On to `NCC(=O)O` [glycine], for which, on RDL receptors [1] (setting [3]), the “activation of RDL receptors (in words)” value was “inactive” and the pEC50 entry was “N/R”. For the same compound, the “activation of RDL receptors (in words)” value at RDL receptors [1] (setting [4]) was “failed to activate”.

For `Oc1noc2c1CCNC2` [THIP, 4,5,6,7-tetrahydroisoxazolo[5,4-c]pyridin-3-ol], on RDL receptors [1], the concentration for a half-maximal effect (EC50) is 220 µM and the “Imax/Imax(GABA)” value was 0.57 ± 0.06. At RDL receptors [1] (Table 1), this compound yielded an EC50 of 226 µM. Further, on RDL receptors [1] (setting [3]), the “agonist type at RDL receptors” value is on record as “partial agonist” and the “nH (Hill coefficient)” value amounted to 2.4 ± 1.0.

In the case of `NCC=CC(=O)O` [TACA, 4-amino-2-butenoic acid], a half-maximal response on RDL receptors [1] (Table 1) (EC50) required 36.7 µM. For the same compound, the “nH (Hill coefficient)” value at RDL receptors [1] (setting [3]) came out at 1.8 ± 0.2. Also, on RDL receptors [1], the “Imax/Imax(GABA)” value worked out at 1.0 ± 0.02.

On to `Nc1ccc(C(=O)O)cc1` [PABA, p-aminobenzoic acid], for which the pEC50 entry at RDL receptors [1] (setting [3]) is recorded as “N/R”. The “activation of RDL receptors (in words)” value at RDL receptors [1] (setting [4]) was “failed to activate”.

Consider `NCCS(=O)(=O)O` [taurine], for which the half-maximal effective concentration (EC50) on RDL receptors [1] and at RDL receptors [1] (Table 1) was over 10000 µM each time.

The record behind these values is PMC2852148 (Biochemistry, 2010).
